Consider 16 molecules from patent publication US20260265256A1 (IMPACT THERAPEUTICS (SHANGHAI), INC., priority 2023, published 2026).

The target of assay [1] is recombinant poly(ADP-ribose) polymerase 2 (PARP2) (Homo sapiens, UniProt Q9UGN5). Nature of the assay: PARP2 chemiluminescent assay. The following applies: PARP2 enzyme activity, chemiluminescence, 40 ng enzyme/well. It is filed as biochemical. The method, then: The solution of recombinant poly(ADP-ribose) polymerase 1 and 2 (PARP1 and PARP2) (40 ng enzyme/well) and the compounds to be tested were mixed, respectively. The solutions were added to a 96-well plate coated with histone mixture, incubated at room temperature for 1 h, then 50 μL 0.3 ng/mL Streptavidin-HRP was added to each well. The plates were incubated for 30 minutes at room temperature. Finally, the plates were treated with streptavidin-HRP followed by addition of the ELISA ECL substrate to produce chemiluminescence that can be measured using a chemiluminescence reader. Inhibition of the tested compound to PARP1/2 enzyme activity was calculated according to the following formula. [formula] IC50 value is obtained by fitting the s-shaped dose response curve equation by using XL Fit software.
recombinant poly(ADP-ribose) polymerase 2 (PARP2), sequence (Q9UGN5 whole entry): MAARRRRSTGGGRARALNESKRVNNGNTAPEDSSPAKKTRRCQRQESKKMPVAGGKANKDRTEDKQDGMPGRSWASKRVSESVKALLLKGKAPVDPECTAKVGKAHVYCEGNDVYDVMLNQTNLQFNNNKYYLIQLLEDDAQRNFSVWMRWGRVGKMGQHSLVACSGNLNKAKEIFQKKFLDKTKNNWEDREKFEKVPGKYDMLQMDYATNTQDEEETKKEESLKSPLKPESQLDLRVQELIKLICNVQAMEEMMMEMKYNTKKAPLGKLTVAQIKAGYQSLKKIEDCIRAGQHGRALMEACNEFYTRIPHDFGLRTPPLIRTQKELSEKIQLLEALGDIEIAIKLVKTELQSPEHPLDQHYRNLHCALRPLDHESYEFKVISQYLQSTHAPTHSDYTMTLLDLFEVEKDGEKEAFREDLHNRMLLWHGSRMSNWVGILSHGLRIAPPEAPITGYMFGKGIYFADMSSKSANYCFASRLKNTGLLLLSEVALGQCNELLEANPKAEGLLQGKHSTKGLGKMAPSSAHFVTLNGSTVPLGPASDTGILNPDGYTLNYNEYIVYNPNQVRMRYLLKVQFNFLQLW

Another assay concerns MDA-MB-436 cells. As to the kind of experiment: Growth inhibition assay against BRCA mutant human breast cancer MDA-MB-436 cell line (CCK-8, 7 days). It is filed as cell-based. Conditions: 168 h, MDA-MB-436, 7 days, read-out: IC50 (nM), proliferation of human breast cancer cells MDA-MB-436. As to the method: The cells were cultured in complete medium (DMEM medium+10% FBS+Insulin+glutathione). When the confluence reached about 80%, cells were digested and gently dispensed from the bottom of the dish with a 1 mL pipette. Cell suspension was collected and centrifuged at 500 rpm for 3 min. The supernatant was discarded, and the cell pellet were re-suspended in complete medium. The cells were seeded into a culture dish at an appropriate proportion, and then cultured in a 5% CO2 incubator at 37° C. The assay was carried out when the cells were in optimum condition and the confluence was reached 80%. Cells in the logarithmic growth phase were taken to centrifugate, and the culture supernatant was removed. The cells were resuspended in refresh complete medium and counted. The resuspended cells were seeded at 3000/well in a 96-well plate and incubated at 37° C., 5% CO2 incubator overnight. […] The solution was mixed by oscillation. 0.10% DMSO was used as the control.
The next day, the 96-well plate inoculated with cells was taken out from the incubator, and the culture supernatant was removed. Then fresh medium of 195 uL/well and 5 μL/well of 40× test compound solution as mentioned above were added into the 96 well plate, respectively. Finally, the plate was incubated for 7 days in a 37° C. 5% CO2 incubator. The medium containing compound was changed on the fourth day. After 7 days, 20 μL of CCK-8 was added to each well and shaken gently, then was cultured for 4 hours. The plate was shaken for 5 min after incubation, the absorbance values of 450 nm or 650 nm wavelengths were recorded respectively (OD=absorbance value of 450 nm−absorbance value of 650 nm) by using the multifunction readout instrument.
Data were analyzed by software GraphPad Prism 6.0. The inhibitory activity of compounds on cell proliferation was plotted using cell survival rate against the compound concentration as coordinates. Cell survival rate %=(ODcompound−ODbackground)/(ODDMSO−ODbackground)×100.
Table 2 summarizes the inhibitory effect data (IC50) of the compounds on the proliferation of human breast cancer cells MDA-MB-436.

Another assay deals with T1, PDE3A (Homo sapiens, UniProt Q14432).
T1 construct: purchased Sino Biological 11908-H20B1
T1 sequence (Q14432 669-1141 limits assumed): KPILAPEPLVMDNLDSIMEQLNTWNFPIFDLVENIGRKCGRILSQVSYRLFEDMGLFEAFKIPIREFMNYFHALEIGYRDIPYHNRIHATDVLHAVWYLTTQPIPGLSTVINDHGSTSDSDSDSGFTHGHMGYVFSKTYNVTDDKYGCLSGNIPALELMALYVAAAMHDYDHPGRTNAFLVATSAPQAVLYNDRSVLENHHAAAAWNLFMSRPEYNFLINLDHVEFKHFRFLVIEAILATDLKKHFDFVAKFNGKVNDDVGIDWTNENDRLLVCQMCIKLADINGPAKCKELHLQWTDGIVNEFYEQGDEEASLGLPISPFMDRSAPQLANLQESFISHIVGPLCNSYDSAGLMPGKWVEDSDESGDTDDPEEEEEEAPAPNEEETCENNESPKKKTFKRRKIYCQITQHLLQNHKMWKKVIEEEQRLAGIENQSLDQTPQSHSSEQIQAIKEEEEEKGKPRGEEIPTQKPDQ
As to the kind of experiment: PDE3A fluorescence polarization (FP) assay. Conditions: 2 nM PDE3A, 0.2 μM FAM-cAMP, read-out: IC50 (μM), PDE3A enzyme activity. Format: biochemical. As to the method: A PDE3A fluorescence polarization (FP) assay in a multi-step format was performed using black, round bottom 384-well plates (Corning, 4514). The testing compounds were serially diluted from stock solutions to 11 concentrations with a 3-fold dilution factor using DMSO. Fifty nL of compound dilutions was mixed with 5 μL of reaction buffer (10 mM Tris-HCl, pH 7.2, 10 mM MgCl2, 0.05% NaN3, 0.1% phosphate-free BSA) containing 0.2 μM FAM-cAMP (BPS, 60200) and 2 nM PDE3A (Sino Biological, 11908-H20B1) enzyme, and incubated for 60 min at 25° C. Afterwards, 15 μL binding agent mixture (Molecular Devices, R8124) was added to each well and the plate was incubated for 60 min at 25° C. The plate was loaded to a BMG PHERAstar FSX to read Fluorescence Polarization (FP) values at a setting of: Ex: 485 nm and Em: 520 nm. Emission light intensity with polarizers parallel (Em|) and emission light intensity with polarizers perpendicular (Em⊥) were recorded. The Polarization (mP) values were calculated using the following formula: mP=(SignalEm|−SignalEm⊥)/(SignalEm|+SignalEm⊥).
Data analysis: • 1) The inhibition % of a compound dose is calculated as:
[formula] • wherein mPMin and mPMax refer to the polarization readings in the condition of substrate only and substrate+enzyme, respectively. • 2) The IC50 values were calculated from non-linear curve fitting using following regression equation using a commercial curve fitting software GraphPad Prism 9.2.0.
wherein X refers to Log of compound concentration and Y refers to % Inhibition.
Table 3 summarize the inhibitory effects of compounds on PDE3A enzyme activity (IC50).

With `CNC(=O)c1ccc(-n2ncc3c2CN(Cc2ccc4c([nH]c(=O)c5c(C)cnn54)c2F)C3)cn1` [Example 1-2, 5-(5-((6-fluoro-3-methyl-4-oxo-4,5-dihydropyrazolo[1,5-a]quinoxalin-7-yl)methyl)-5,6-dihydropyrrolo[3,4-c]pyrazol-1(4H)-yl)-N-methylpicolinamide], the IC50 in assay [1] was more than 1000 nM; in the assay with MDA-MB-436 cells, more than 100 nM; at PDE3A, more than 25 µM.
Take `CCNC(=O)c1ccc(-n2cc3c(n2)CN(Cc2ccc4c([nH]c(=O)c5c(C)cnn54)c2F)C3)cn1` [Example 6, 5-(5-((6-fluoro-3-methyl-4-oxo-4,5-dihydropyrazolo[1,5-a]quinoxalin-7-yl)methyl)-5,6-dihydropyrrolo[3,4-c]pyrazol-2(4H)-yl)-N-ethylpicolinamide]: the IC50 in assay [1] was more than 10000 nM; in the assay with MDA-MB-436 cells it was 2.07 nM; on PDE3A, more than 30 µM.
With `CNC(=O)c1ccc(-n2cc3c(n2)CN(Cc2ccc4c([nH]c(=O)c5c(F)cnn54)c2F)C3)cn1` [Example 13, 5-(5-((3,6-difluoro-4-oxo-4,5-dihydropyrazolo[1,5-a]quinoxalin-7-yl)methyl)-5,6-dihydropyrrolo[3,4-c]pyrazol-2(4H)-yl)-N-methylpicolinamide], the IC50 in assay [1] was 42 nM; in the assay on MDA-MB-436 cells, 0.99 nM; on PDE3A it was more than 30 µM.
As to `CNC(=O)c1ccc(-n2cc3c(n2)CN(Cc2ccc4c([nH]c(=O)c5c(F)cnn54)c2F)C3)c(C)n1` [Example 14, 5-(5-((3,6-difluoro-4-oxo-4,5-dihydropyrazolo[1,5-a]quinoxalin-7-yl)methyl)-5,6-dihydropyrrolo[3,4-c]pyrazol-2(4H)-yl)-N,6-dimethylpicolinamide], the results for the IC50 with MDA-MB-436 cells and on PDE3A were 5.06 nM and more than 30 µM, respectively.
As for `CNC(=O)c1ccc(-n2cc3c(n2)CN(Cc2ccc4c([nH]c(=O)c5c(F)cnn54)c2F)C3)c(F)n1` [Example 15, 5-(5-((3,6-difluoro-4-oxo-4,5-dihydropyrazolo[1,5-a]quinoxalin-7-yl)methyl)-5,6-dihydropyrrolo[3,4-c]pyrazol-2(4H)-yl)-6-fluoro-N-methylpicolinamide], the IC50 was 373 nM in assay [1], 1.36 nM with MDA-MB-436 cells and more than 30 µM on PDE3A.
On the same counts, the results for `CNC(=O)c1ccc(-n2cc3c(n2)CN(Cc2ccc4c([nH]c(=O)c5c(F)cnn54)c2F)C3)c(Cl)n1` [Example 16, 5-(5-((3,6-difluoro-4-oxo-4,5-dihydropyrazolo[1,5-a]quinoxalin-7-yl)methyl)-5,6-dihydropyrrolo[3,4-c]pyrazol-2(4H)-yl)-6-chloro-N-methylpicolinamide] are 1190 nM, 5.65 nM and more than 30 µM.
Consider `CCNC(=O)c1ccc(-n2cc3c(n2)CN(Cc2ccc4c([nH]c(=O)c5c(F)cnn54)c2F)C3)cn1` [Example 18, 5-(5-((3,6-difluoro-4-oxo-4,5-dihydropyrazolo[1,5-a]quinoxalin-7-yl)methyl)-5,6-dihydropyrrolo[3,4-c]pyrazol-2(4H)-yl)-N-ethylpicolinamide], for which the IC50 with MDA-MB-436 cells was 0.59 nM; at PDE3A it was more than 30 µM.
With `CCNC(=O)c1ccc(-n2cc3c(n2)CN(Cc2ccc4c([nH]c(=O)c5c(F)cnn54)c2F)C3)c(F)n1` [Example 19, 5-(5-((3,6-difluoro-4-oxo-4,5-dihydropyrazolo[1,5-a]quinoxalin-7-yl)methyl)-5,6-dihydropyrrolo[3,4-c]pyrazol-2(4H)-yl)-N-ethyl-6-fluoropicolinamide], the IC50 in assay [1] is more than 10000 nM; in the assay with MDA-MB-436 cells, 1.57 nM; on PDE3A, more than 30 µM.
As to `CNC(=O)c1ccc(-n2cc3c(n2)CN(Cc2ccc4c([nH]c(=O)c5cc(F)nn54)c2F)C3)cn1` [Example 27, 5-(5-((2,6-difluoro-4-oxo-4,5-dihydropyrazolo[1,5-a]quinoxalin-7-yl)methyl)-5,6-dihydropyrrolo[3,4-c]pyrazol-2(4H)-yl)-N-methylpicolinamide], the IC50 was 1.44 nM in the assay on MDA-MB-436 cells and more than 30 µM on PDE3A.
Regarding `CNC(=O)c1ccc(-n2cc3c(n2)CN(Cc2ccc4c([nH]c(=O)c5occc54)c2F)C3)cn1` [Example 28, 5-(5-((6-fluoro-4-oxo-4,5-dihydrofuro[2,3-c]quinolin-7-yl)methyl)-5,6-dihydropyrrolo[3,4-c]pyrazol-2(4H)-yl)-N-methylpicolinamide], the IC50 came to 119 nM in assay [1], 0.76 nM in the assay with MDA-MB-436 cells and 29.4 µM at PDE3A.
For `CNC(=O)c1ccc(-n2cc3c(n2)CN(Cc2ccc4c([nH]c(=O)c5nn(C)cc54)c2F)C3)cn1` [Example 29, 5-(5-((6-fluoro-2-methyl-4-oxo-4,5-dihydro-2H-pyrazolo[3,4-c]quinolin-7-yl)methyl)-5,6-dihydropyrrolo[3,4-c]pyrazol-2(4H)-yl)-N-methylpicolinamide] the same measures were more than 10000 nM, 1.57 nM and more than 30 µM.
Regarding `CNC(=O)c1ccc(-n2cc3c(c2)CN(Cc2ccc4c([nH]c(=O)c5c(C)cnn54)c2F)C3)cn1` [Example 39, 5-(5-((6-fluoro-3-methyl-4-oxo-4,5-dihydropyrazolo[1,5-a]quinoxalin-7-yl)methyl)-5,6-dihydropyrrolo[3,4-c]pyrrol-2(4H)-yl)-N-methylpicolinamide], the IC50 in the assay on MDA-MB-436 cells was 1.82 nM; on PDE3A it was more than 30 µM.
For `CNC(=O)c1ccc(-c2nc3c(s2)CN(Cc2ccc4c([nH]c(=O)c5c(F)cnn54)c2F)C3)cn1` [Example 42, 5-(5-((3,6-difluoro-4-oxo-4,5-dihydropyrazolo[1,5-a]quinoxalin-7-yl)methyl)-5,6-dihydro-4H-pyrrolo[3,4-d]thiazol-2-yl)-N-methylpicolinamide], the IC50 in assay [1] is 118 nM; in the assay on MDA-MB-436 cells it was 6.04 nM; at PDE3A, more than 30 µM.
`CNC(=O)c1ccc(-n2cc3c(n2)CN(Cc2ccc4c([nH]c(=O)n5cc(C)nc45)c2F)C3)cn1` [Example 49, 5-(5-((7-fluoro-2-methyl-5-oxo-5,6-dihydroimidazo[1,2-c]quinazolin-8-yl)methyl)-5,6-dihydropyrrolo[3,4-c]pyrazol-2(4H)-yl)-N-methylpicolinamide]: the IC50 in the assay on MDA-MB-436 cells was 0.71 nM; on PDE3A, more than 30 µM.
On the same counts, the results for `CCNC(=O)c1ccc(-n2cc3c(n2)CN(Cc2ccc4c([nH]c(=O)n5cc(C)nc45)c2F)C3)c(F)n1` [Example 52, N-ethyl-6-fluoro-5-(5-((7-fluoro-2-methyl-5-oxo-5,6-dihydroimidazo[1,2-c]quinazolin-8-yl)methyl)-5,6-dihydropyrrolo[3,4-c]pyrazol-2(4H)-yl)picolinamide] are 0.92 nM and more than 30 µM.
For `CNC(=O)c1ccc(N2CC3=C(CN(Cc4ccc5c([nH]c(=O)c6c(F)cnn65)c4F)C3)C2)c(F)n1` [Example 58] the same measures were 2.97 nM and 2.41 µM.
